{"source": "patent US20250186448A1", "about": "(Mezzion Pharma Co., Ltd., priority 2021, published 2025)", "key": {"[1]": {"tested_on": "adolescents with Fontan physiology", "assay": "FUEL trial: safety, adverse event reports", "format": "in vivo, human", "excerpt": "The primary outcome was the change in oxygen consumption at peak exercise (max or peak VO2) from baseline to the 26-week visit. Secondary exercise outcomes included change in additional measures at maximal exertion, as well as change in measures of submaximal exercise at the ventilatory anaerobic threshold (VAT). The primary outcome for clinical secondary aims included change in myocardial performance index (MPI), an echocardiographically-derived measure of systolic and diastolic ventricular function, change in log-transformed reactive hyperemia index (lnRHI), a PAT-derived measure of peripheral vascular function, and change in log-transformed serum BNP level. Safety was monitored through adverse event reports, which were collected according to a pre-specified protocol of study coordinator outreach, and through ad hoc patient and family communication with members of the study team at each site.\nThe primary outcome for clinical secondary aims included the between group differences in change in myocardial performance index (MPI), an echocardiographically-derived measure of systolic and diastolic ventricular function, change in log-transformed reactive hyperemia index (lnRHI), a PAT-derived measure of peripheral vascular function, and change in log-transformed serum BNP level. Measurements for each of these secondary outcomes were performed at core labs. Safety was monitored through adverse event reports, which were collected according to a pre-specified protocol of study coordinator outreach, and through ad hoc patient and family communication with members of the study team at each site."}, "[2]": {"tested_on": "adolescents with Fontan physiology", "assay": "FUEL trial: echocardiographic myocardial performance index (MPI), blood pool Doppler", "format": "in vivo, human", "excerpt": "Generally speaking, MPI (also referred to as the Doppler-derived index or Tei Index) is a measure of ventricular systolic and diastolic function as determined by a focused echocardiogram. It combines systolic and diastolic time intervals to assess heart function. More specifically, MPI can be used to assess ventricular performance represented by a numeric value using cardiac time intervals. This numeric value equals the sum of isovolumetric contraction time (ICT) and isovolumetric relaxation time (IRT) divided by ejection time (ET) and can be determined for either the left or right ventricle. Pellett, A. A., et al.: The Tei Index: Methodology and Disease. State Values. Echocardiography: A Jrnl. of CV Ultrasound & Allied Tech. 21(7):669-672 (2004); and Uluçay, A., Tatli E.: Myocardial performance index. Anadolu Kardiyol Derg. 8(2):143-8 (April, 2008), both of which are incorporated herein by reference in their entireties. In the FUEL Trial, the MPI measured the performance of the single functioning ventricle. Thus, the MPI results from the FUEL Trial were determined by velocities obtained from blood pool Doppler assessment of the inflow and outflow tract of the functioning single ventricle. In other words, the FUEL Trial MPI was determined by measuring the cardiac time intervals using pulsed-wave Doppler velocity spectra of the ventricular inflow and outflow of the single functioning ventricle.\nEchocardiograms were performed by sonographers with specific training for this protocol. The primary outcome of interest was MPI using Doppler-based measures of inflow and outflow duration. The duration of inflow into the dominant ventricle and outflow across the dominant semilunar valve were measured and used to calculate MPI using the standard formula. Tei C, Ling L H, Hodge D O, et al.: New index of combined systolic and diastolic myocardial performance: a simple and reproducible measure of cardiac function—a study in normal and dilated cardiomyopathy. J Cardiol, 26(6):357-66 (1995); and Pellet A A et al.: The Tei Index: Methodology and Disease State Values. Echocardiography: A Jrnl Of CV Ultrasound & Allied Tech, 21(7):669-672 (2004). Additional tissue Doppler images were obtained and used to calculate the tissue Doppler based MPI as previously described. Harada K, Tamura M, Toyono M et al.: Comparison of the right ventricular Tei index by tissue Doppler imaging to that obtained by pulsed Doppler in children without heart disease. Am J Cardiol, 90(5):566-9 (2002). Whenever possible, three measurements were made and the mean duration was used for the calculation.\nThe primary outcome was the change in oxygen consumption at peak exercise (max or peak VO2) from baseline to the 26-week visit. Secondary exercise outcomes included change in additional measures at maximal exertion, as well as change in measures of submaximal exercise at the ventilatory anaerobic threshold (VAT). […] Safety was monitored through adverse event reports, which were collected according to a pre-specified protocol of study coordinator outreach, and through ad hoc patient and family communication with members of the study team at each site.\nEach subject underwent an echocardiogram at the start and finish of the 26 weeks. […] The change in the MPI was determined by velocities obtained from blood pool Doppler assessment of the inflow and outflow tract of the single functioning dominant ventricle. […]"}}}
{"smiles": "CCCOc1ccc(S(=O)(=O)NCCC2CCCN2C)cc1-c1nc2c(CCC)nn(C)c2c(=O)[nH]1", "note": "(stereo not shown) [Udenafil, udenafil]", "values": [{"measurement": "Deaths in the study cohort", "setting": "[1]; FUEL trial", "value": "no deaths"}, {"measurement": "Non-serious adverse event: Dizziness, participants", "setting": "[1]; human, in vivo, 6 months", "value": "16 (8.0) n (%)"}, {"measurement": "Non-serious adverse event: Epistaxis, participants", "setting": "[1]; human, in vivo, 6 months", "value": "21 (10.5) n (%)"}, {"measurement": "Non-serious adverse event: Flushing, participants", "setting": "[1]; human, in vivo, 6 months", "value": "32 (16.0) n (%)"}, {"measurement": "Non-serious adverse event: Headache, participants", "setting": "[1]; human, in vivo, 6 months", "value": "79 (39.5) n (%)"}, {"measurement": "Non-serious adverse event: Nausea/vomiting, participants", "setting": "[1]; human, in vivo, 6 months", "value": "31 (15.5) n (%)"}, {"measurement": "Participants who experienced a serious adverse event", "setting": "[1]; human, in vivo, 6 months", "value": 14}, {"measurement": "Serious adverse events with possible, probable, or definite relationship to study drug, number of events", "setting": "[1]; human, in vivo, 6 months", "value": 3}, {"measurement": "Headache, facial flushing, abdominal pain, epistaxis, and erection (male participants), frequency vs placebo", "setting": "[1]; in vivo", "value": "more common in the udenafil group"}, {"measurement": "Priapism", "setting": "[1]; in vivo", "value": "no reported episodes of priapism"}, {"measurement": "Non-serious adverse event: Increased erection, participants", "setting": "[1]; male, human, in vivo, 6 months", "value": "13 (11.7) n (%)"}, {"measurement": "MPI difference, Week 26 - Baseline, mean", "setting": "[2]; 87.5 mg twice daily, paired data, decrease shows improvement, p 0.028 vs placebo", "value": "122: −0.02"}, {"measurement": "MPI, LS Mean Dif A − B (udenafil − placebo)", "setting": "[2]; Baseline, p 0.818", "value": "−0.0"}, {"measurement": "MPI, LS Mean Dif A − B (udenafil − placebo)", "setting": "[2]; Week 26, p 0.024", "value": "−0.04"}, {"measurement": "MPI, LS Mean Dif A − B (udenafil − placebo) of difference Week 26 - Baseline", "setting": "[2]; p 0.028", "value": "−0.03"}, {"measurement": "MPI, udenafil treated group compared to placebo", "setting": "[2]; p=0.028", "value": "statistically significant improvement"}]}
